# Source: patent publication US20050112573A1, “Method of detecting toxic substance” (priority 2001, published 2005)
# Test system: yeast genes (level of expressed mRNA)
# Experiment: DNA chip analysis of expressed mRNA of yeast genes after 2 h culture with a toxic chemical substance
# Type: cell-based, Saccharomyces cerevisiae S288C
# Conditions: for The level of expressed mRNA in the presence of chemical substance/ (ratio to absence): transport facilitation protein gene; for The level of expressed mRNA in the presence of chemical substance/: ratio to no chemical; for The level of expressed mRNA in the presence of chemical substance/ (ratio to absence of chemical substance): stress protein genes, DNA chip
# Summary of the method: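 S. cerevisiae S288C in YPD at 25 °C was exposed at log phase for 2 h to a growth-inhibiting, non-lethal concentration of the chemical. Poly(A) mRNA was reverse-transcribed with Cy3- or Cy5-dUTP and hybridized to a whole-genome yeast DNA chip (65 °C, >12 h). Values are fluorescence ratios versus untreated cells.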
substance,measurement,setting,value
sodium dodecylbenzosulfonate [(17)],The level of expressed mRNA in the presence of chemical substance/in the absence of chemical substance,yeast gene YGR124W,0.7
same,The level of expressed mRNA in the presence of chemical substance/The level of expressed mRNA in the absence of chemical substance,yeast gene YGR136W,1.3
same,The level of expressed mRNA in the presence of chemical substance/ (ratio to absence),yeast gene YGR138C,0.7
same,The level of expressed mRNA in the presence of chemical substance/,yeast gene YGR153W,1.3
same,The level of expressed mRNA in the presence of chemical substance/in the absence of chemical substance,yeast gene YGR157W,0.8
same,The level of expressed mRNA in the presence of chemical substance/The level of expressed mRNA in the absence of chemical substance,yeast gene YGR189C,2.3
same,The level of expressed mRNA in the presence of chemical substance/in the absence of chemical substance,yeast gene YGR192C,1.1
same,The level of expressed mRNA in the presence of chemical substance/The level of expressed mRNA in the absence of chemical substance,yeast gene YGR213C,12.8
same,The level of expressed mRNA in the presence of chemical substance/,yeast gene YGR223C,1.1
same,The level of expressed mRNA in the presence of chemical substance/in the absence of chemical substance,yeast gene YGR244C,1.9
same,The level of expressed mRNA in the presence of chemical substance/,yeast gene YGR247W,1.0
same,The level of expressed mRNA in the presence of chemical substance/in the absence of chemical substance,yeast gene YGR254W,1.3
same,The level of expressed mRNA in the presence of chemical substance/The level of expressed mRNA in the absence of chemical substance,yeast gene YGR257C,1.1
same,"The level of expressed mRNA in the presence of chemical substance/ (in its absence), gene YGR287C","yeast gene YGR287C, ratio of DNA chip fluorescence intensity to that without chemical substance",1.0
same,"The level of expressed mRNA in the presence of chemical substance/ (in its absence), gene YGR288W","yeast gene YGR288W, ratio of DNA chip fluorescence intensity to that without chemical substance",1.2
same,The level of expressed mRNA in the presence of chemical substance/,yeast gene YGR295C,1.6
same,The level of expressed mRNA in the presence of chemical substance/ (ratio to absence of chemical substance),yeast gene YHL028W,1.6
same,The level of expressed mRNA in the presence of chemical substance/ (ratio to absence),yeast gene YHL035C,1.1
same,The level of expressed mRNA in the presence of chemical substance/ (ratio to absence),yeast gene YHL036W,1.0
same,The level of expressed mRNA in the presence of chemical substance/ (ratio to absence),yeast gene YHL040C,1.4
same,The level of expressed mRNA in the presence of chemical substance/,yeast gene YHL044W,0.8
same,The level of expressed mRNA in the presence of chemical substance/ (ratio to absence of chemical substance),yeast gene YHL046C,0.9
same,The level of expressed mRNA in the presence of chemical substance/The level of expressed mRNA in the absence of chemical substance,yeast gene YHR004C,1.4
same,The level of expressed mRNA in the presence of chemical substance/in the absence of chemical substance,yeast gene YHR018C,1.9
same,The level of expressed mRNA in the presence of chemical substance/in the absence of chemical substance,yeast gene YHR043C,1.4
same,The level of expressed mRNA in the presence of chemical substance/in the absence of chemical substance,yeast gene YHR044C,1.3
same,The level of expressed mRNA in the presence of chemical substance/ (ratio to absence),yeast gene YHR048W,0.7
same,The level of expressed mRNA in the presence of chemical substance/The level of expressed mRNA in the absence of chemical substance,yeast gene YHR071W,2.6
same,The level of expressed mRNA in the presence of chemical substance/ (ratio to absence),yeast gene YHR092C,0.9
same,The level of expressed mRNA in the presence of chemical substance/ (ratio to absence),yeast gene YHR094C,1.4
same,The level of expressed mRNA in the presence of chemical substance/in the absence of chemical substance,yeast gene YHR112C,1.6
same,The level of expressed mRNA in the presence of chemical substance/,yeast gene YHR116W,0.9
same,The level of expressed mRNA in the presence of chemical substance/The level of expressed mRNA in the absence of chemical substance,yeast gene YHR139C,1.4
same,The level of expressed mRNA in the presence of chemical substance/The level of expressed mRNA in the absence of chemical substance,yeast gene YHR142W,1.3
same,The level of expressed mRNA in the presence of chemical substance/,yeast gene YHR145C,1.3
same,The level of expressed mRNA in the presence of chemical substance/ (ratio to absence),yeast gene YHR175W,1.3
same,"The level of expressed mRNA in the presence of chemical substance/ (in its absence), gene YHR210C","yeast gene YHR210C, ratio of DNA chip fluorescence intensity to that without chemical substance",1.4
same,"The level of expressed mRNA in the presence of chemical substance/ (in its absence), gene YIL006W","yeast gene YIL006W, ratio of DNA chip fluorescence intensity to that without chemical substance",0.8
same,The level of expressed mRNA in the presence of chemical substance/ (ratio to absence of chemical substance),yeast gene YIL011W,0.8
same,The level of expressed mRNA in the presence of chemical substance/ (ratio to absence),yeast gene YIL022W,0.8
same,The level of expressed mRNA in the presence of chemical substance/ (ratio to absence),yeast gene YIL056W,1.5
same,The level of expressed mRNA in the presence of chemical substance/,yeast gene YIL058W,1.4
same,The level of expressed mRNA in the presence of chemical substance/,yeast gene YIL060W,1.2
same,The level of expressed mRNA in the presence of chemical substance/,yeast gene YIL065C,2.1
same,The level of expressed mRNA in the presence of chemical substance/,yeast gene YIL083C,0.9
same,The level of expressed mRNA in the presence of chemical substance/ (ratio to absence),yeast gene YIL088C,1.2
same,The level of expressed mRNA in the presence of chemical substance/,yeast gene YIL097W,1.1
same,The level of expressed mRNA in the presence of chemical substance/The level of expressed mRNA in the absence of chemical substance,yeast gene YIL123W,1.3
same,The level of expressed mRNA in the presence of chemical substance/The level of expressed mRNA in the absence of chemical substance,yeast gene YIL140W,0.7
same,The level of expressed mRNA in the presence of chemical substance/in the absence of chemical substance,yeast gene YIL160C,2.4
same,The level of expressed mRNA in the presence of chemical substance/ (ratio to absence),yeast gene YIL166C,1.2
same,The level of expressed mRNA in the presence of chemical substance/ (ratio to absence),yeast gene YIL170W,1.6
same,The level of expressed mRNA in the presence of chemical substance/in the absence of chemical substance,yeast gene YIR017C,1.5
same,The level of expressed mRNA in the presence of chemical substance/in the absence of chemical substance,yeast gene YIR030C,0.9
same,The level of expressed mRNA in the presence of chemical substance/,yeast gene YJL036W,1.4
same,The level of expressed mRNA in the presence of chemical substance/in the absence of chemical substance,yeast gene YJL052W,1.2
same,"The level of expressed mRNA in the presence of chemical substance/ (in its absence), gene YJL070C","yeast gene YJL070C, ratio of DNA chip fluorescence intensity to that without chemical substance",1.1
same,The level of expressed mRNA in the presence of chemical substance/The level of expressed mRNA in the absence of chemical substance,yeast gene YJL073W,1.1
same,The level of expressed mRNA in the presence of chemical substance/The level of expressed mRNA in the absence of chemical substance,yeast gene YJL089W,1.2
same,The level of expressed mRNA in the presence of chemical substance/ (ratio to absence),yeast gene YJL094C,2.1
same,"The level of expressed mRNA in the presence of chemical substance/ (ratio to absence), gene YJL096W","yeast gene YJL096W, mitochondria-located protein genes, 2 h culture with chemical",1.1
same,The level of expressed mRNA in the presence of chemical substance/The level of expressed mRNA in the absence of chemical substance,yeast gene YJL116C,1.2
same,The level of expressed mRNA in the presence of chemical substance/in the absence of chemical substance,yeast gene YJL153C,6.5
same,The level of expressed mRNA in the presence of chemical substance/ (ratio to absence of chemical substance),yeast gene YJL158C,1.4
same,"The level of expressed mRNA in the presence of chemical substance/ (in its absence), gene YJL167W","yeast gene YJL167W, ratio of DNA chip fluorescence intensity to that without chemical substance",1.4
same,"The level of expressed mRNA in the presence of chemical substance/ (ratio to absence), gene YJL180C","yeast gene YJL180C, mitochondria-located protein genes, 2 h culture with chemical",0.9
same,The level of expressed mRNA in the presence of chemical substance/,yeast gene YJL185C,1.0
same,The level of expressed mRNA in the presence of chemical substance/ (ratio to absence),yeast gene YJL212C,0.6
same,The level of expressed mRNA in the presence of chemical substance/,yeast gene YJL213W,2.1
same,"The level of expressed mRNA in the presence of chemical substance/ (in its absence), gene YJL216C","yeast gene YJL216C, ratio of DNA chip fluorescence intensity to that without chemical substance",1.2
same,The level of expressed mRNA in the presence of chemical substance/ (ratio to absence),yeast gene YJL219W,1.6
same,The level of expressed mRNA in the presence of chemical substance/The level of expressed mRNA in the absence of chemical substance,yeast gene YJR004C,0.4
same,The level of expressed mRNA in the presence of chemical substance/in the absence of chemical substance,yeast gene YJR009C,1.1
same,The level of expressed mRNA in the presence of chemical substance/in the absence of chemical substance,yeast gene YJR010W,1.2
same,The level of expressed mRNA in the presence of chemical substance/in the absence of chemical substance,yeast gene YJR073C,2.9
same,The level of expressed mRNA in the presence of chemical substance/,yeast gene YJR085C,1.4
same,The level of expressed mRNA in the presence of chemical substance/The level of expressed mRNA in the absence of chemical substance,yeast gene YJR086W,1.4
same,The level of expressed mRNA in the presence of chemical substance/ (ratio to absence of chemical substance),yeast gene YJR090C,1.1
same,The level of expressed mRNA in the presence of chemical substance/ (ratio to absence),yeast gene YJR095W,1.3
same,The level of expressed mRNA in the presence of chemical substance/ (ratio to absence),yeast gene YJR106W,1.2
same,The level of expressed mRNA in the presence of chemical substance/in the absence of chemical substance,yeast gene YJR130C,1.1
same,The level of expressed mRNA in the presence of chemical substance/in the absence of chemical substance,yeast gene YJR149W,1.1
same,The level of expressed mRNA in the presence of chemical substance/in the absence of chemical substance,yeast gene YJR155W,1.3
same,The level of expressed mRNA in the presence of chemical substance/in the absence of chemical substance,yeast gene YKL001C,2.7
same,The level of expressed mRNA in the presence of chemical substance/The level of expressed mRNA in the absence of chemical substance,yeast gene YKL008C,1.4
same,The level of expressed mRNA in the presence of chemical substance/The level of expressed mRNA in the absence of chemical substance,yeast gene YKL013C,1.6
same,The level of expressed mRNA in the presence of chemical substance/The level of expressed mRNA in the absence of chemical substance,yeast gene YKL039W,1.2
same,The level of expressed mRNA in the presence of chemical substance/The level of expressed mRNA in the absence of chemical substance,yeast gene YKL041W,1.1
same,The level of expressed mRNA in the presence of chemical substance/The level of expressed mRNA in the absence of chemical substance,yeast gene YKL096W,0.5
same,The level of expressed mRNA in the presence of chemical substance/,yeast gene YKL133C,1.2
same,The level of expressed mRNA in the presence of chemical substance/ (ratio to absence),yeast gene YKL146W,1.0
same,The level of expressed mRNA in the presence of chemical substance/,yeast gene YKL162C,0.8
same,The level of expressed mRNA in the presence of chemical substance/ (ratio to absence of chemical substance),yeast gene YKL164C,0.8
same,The level of expressed mRNA in the presence of chemical substance/The level of expressed mRNA in the absence of chemical substance,yeast gene YKL165C,0.9
same,The level of expressed mRNA in the presence of chemical substance/,yeast gene YKL187C,0.7
